Data published in patent US8927717B1, “Thiochromeno[2,3-c]quinolin-12-one derivatives, preparation method and application thereof” (National Defense Medical Center, priority 2014, dated 2015).

Experiments:
CCRF-CEM = assay type: cell-based; settings: Leukemia; 10^−5 molar; 48 hours; SRB
HL-60(TB) = assay type: cell-based; settings: Leukemia; 10^−5 molar; 48 hours; SRB
K-562 = assay type: cell-based; settings: Leukemia; 10^−5 molar; 48 hours; SRB
MOLT-4 = assay type: cell-based; settings: Leukemia; 10^−5 molar; 48 hours; SRB
RPMI-8226 = assay type: cell-based; settings: Leukemia; 10^−5 molar; 48 hours; SRB
SR = assay type: cell-based; settings: Leukemia; 10^−5 molar; 48 hours; SRB
A549/ATCC = assay type: cell-based; settings: Non-small cell lung cancer; 10^−5 molar; 48 hours; SRB
HOP-62 = assay type: cell-based; settings: Non-small cell lung cancer; 10^−5 molar; 48 hours; SRB
NCI-H226 = assay type: cell-based; settings: Non-small cell lung cancer; 10^−5 molar; 48 hours; SRB
NCI-H23 = assay type: cell-based; settings: Non-small cell lung cancer; 10^−5 molar; 48 hours; SRB
NCI-H460 = assay type: cell-based; settings: Non-small cell lung cancer; 10^−5 molar; 48 hours; SRB
NCI-H522 = assay type: cell-based; settings: Non-small cell lung cancer; 10^−5 molar; 48 hours; SRB
COLO 205 = assay type: cell-based; settings: Colon cancer; 10^−5 molar; 48 hours; SRB
HCC-2998 = assay type: cell-based; settings: Colon cancer; 10^−5 molar; 48 hours; SRB
HCT-116 = assay type: cell-based; settings: Colon cancer; 10^−5 molar; 48 hours; SRB
HCT-15 = assay type: cell-based; settings: Colon cancer; 10^−5 molar; 48 hours; SRB
HT29 = assay type: cell-based; settings: Colon cancer; 10^−5 molar; 48 hours; SRB
KM12 = test: cells; assay type: cell-based; settings: Colon cancer; 10^−5 molar; 48 hours; SRB
SW-620 = assay type: cell-based; settings: Colon cancer; 10^−5 molar; 48 hours; SRB
SF-268 = assay type: cell-based; settings: CNS cancer; 10^−5 molar; 48 hours; SRB
SF-295 = assay type: cell-based; settings: CNS cancer; 10^−5 molar; 48 hours; SRB
SF-539 = assay type: cell-based; settings: CNS cancer; 10^−5 molar; 48 hours; SRB
SNB-19 = assay type: cell-based; settings: CNS cancer; 10^−5 molar; 48 hours; SRB
SNB-75 = assay type: cell-based; settings: CNS cancer; 10^−5 molar; 48 hours; SRB
U251 = assay type: cell-based; settings: CNS cancer; 10^−5 molar; 48 hours; SRB
LOX IMVI = assay type: cell-based; settings: Melanoma; 10^−5 molar; 48 hours; SRB
MALME-3M = assay type: cell-based; settings: Melanoma; 10^−5 molar; 48 hours; SRB
M14 = assay type: cell-based; settings: Melanoma; 10^−5 molar; 48 hours; SRB
MDA-MB-435 = assay type: cell-based; settings: Melanoma; 10^−5 molar; 48 hours; SRB
SK-MEL-28 = assay type: cell-based; settings: Melanoma; 10^−5 molar; 48 hours; SRB
SK-MEL-5 = assay type: cell-based; settings: Melanoma; 10^−5 molar; 48 hours; SRB
UACC-257 = assay type: cell-based; settings: Melanoma; 10^−5 molar; 48 hours; SRB
UACC-62 = assay type: cell-based; settings: Melanoma; 10^−5 molar; 48 hours; SRB
IGROV1 = assay type: cell-based; settings: Ovarian cancer; 10^−5 molar; 48 hours; SRB
OVCAR-3 = assay type: cell-based; settings: Ovarian cancer; 10^−5 molar; 48 hours; SRB
OVCAR-4 = assay type: cell-based; settings: Ovarian cancer; 10^−5 molar; 48 hours; SRB
OVCAR-5 = assay type: cell-based; settings: Ovarian cancer; 10^−5 molar; 48 hours; SRB
OVCAR-8 = assay type: cell-based; settings: Ovarian cancer; 10^−5 molar; 48 hours; SRB
NCI/ADR-RES = assay type: cell-based; settings: Ovarian cancer; 10^−5 molar; 48 hours; SRB
SK-OV-3 = assay type: cell-based; settings: Ovarian cancer; 10^−5 molar; 48 hours; SRB
786-0 = assay type: cell-based; settings: Renal cancer; 10^−5 molar; 48 hours; SRB
A498 = assay type: cell-based; settings: Renal cancer; 10^−5 molar; 48 hours; SRB
ACHN = assay type: cell-based; settings: Renal cancer; 10^−5 molar; 48 hours; SRB
CAKI-1 = assay type: cell-based; settings: Renal cancer; 10^−5 molar; 48 hours; SRB
RXF 393 = assay type: cell-based; settings: Renal cancer; 10^−5 molar; 48 hours; SRB
SN12C = assay type: cell-based; settings: Renal cancer; 10^−5 molar; 48 hours; SRB
TK-10 = assay type: cell-based; settings: Renal cancer; 10^−5 molar; 48 hours; SRB
UO-31 = assay type: cell-based; settings: Renal cancer; 10^−5 molar; 48 hours; SRB
PC-3 = assay type: cell-based; settings: Prostate cancer; 10^−5 molar; 48 hours; SRB
DU-145 = assay type: cell-based; settings: Prostate cancer; 10^−5 molar; 48 hours; SRB
MCF7 = assay type: cell-based; settings: Breast cancer; 10^−5 molar; 48 hours; SRB
MDA-MB-231/ATCC = assay type: cell-based; settings: Breast cancer; 10^−5 molar; 48 hours; SRB
HS 578T = assay type: cell-based; settings: Breast cancer; 10^−5 molar; 48 hours; SRB
BT-549 = assay type: cell-based; settings: Breast cancer; 10^−5 molar; 48 hours; SRB
T-47D = assay type: cell-based; settings: Breast cancer; 10^−5 molar; 48 hours; SRB
MDA-MB-486 = assay type: cell-based; settings: Breast cancer; 10^−5 molar; 48 hours; SRB
60 cancer cell lines = test: NCI 60-cell screen, SRB, whole panel (mean, delta, range); assay type: cell-based; settings: 10^−5 molar, 48 hours, SRB

CCC(CO)Nc1nc2ccccc2c2c(=O)c3cc(Cl)ccc3sc12 (stereo not drawn) [Compound N12, 10-Chloro-6-((1-hydroxybutan-2-yl)amino)-12H-thiochromeno[2,3-c]quinolin-12-one]
Growth percent CCRF-CEM (CCRF-CEM): 70.00%
Growth percent HL-60(TB) (HL-60(TB)): 96.29%
Growth percent K-562 (K-562): 46.86%
Growth percent MOLT-4 (MOLT-4): 61.79%
Growth percent RPMI-8226 (RPMI-8226): 73.50%
Growth percent SR (SR): 62.38%
Growth percent A549/ATCC (A549/ATCC): 69.86%
Growth percent HOP-62 (HOP-62): 55.91%
Growth percent NCI-H226 (NCI-H226): 77.56%
Growth percent NCI-H23 (NCI-H23): 81.25%
Growth percent NCI-H460 (NCI-H460): 83.78%
Growth percent NCI-H522 (NCI-H522): 64.07%
Growth percent COLO 205 (COLO 205): 68.37%
Growth percent HCC-2998 (HCC-2998): 99.61%
Growth percent HCT-116 (HCT-116): 73.42%
Growth percent HCT-15 (HCT-15): 77.58%
Growth percent HT29 (HT29): 78.24%
Growth percent KM12 (KM12): 82.37%
Growth percent SW-620 (SW-620): 84.32%
Growth percent SF-268 (SF-268): 76.71%
Growth percent SF-295 (SF-295): 89.58%
Growth percent SF-539 (SF-539): 83.86%
Growth percent SNB-19 (SNB-19): 93.87%
Growth percent SNB-75 (SNB-75): 31.01%
Growth percent U251 (U251): 74.49%
Growth percent LOX IMVI (LOX IMVI): 79.25%
Growth percent MALME-3M (MALME-3M): 58.66%
Growth percent M14 (M14): 85.38%
Growth percent MDA-MB-435 (MDA-MB-435): 92.11%
Growth percent SK-MEL-28 (SK-MEL-28): 82.86%
Growth percent SK-MEL-5 (SK-MEL-5): 87.19%
Growth percent UACC-257 (UACC-257): 95.71%
Growth percent UACC-62 (UACC-62): 76.17%
Growth percent IGROV1 (IGROV1): 66.54%
Growth percent OVCAR-3 (OVCAR-3): 96.34%
Growth percent OVCAR-4 (OVCAR-4): 83.23%
Growth percent OVCAR-5 (OVCAR-5): 88.01%
Growth percent OVCAR-8 (OVCAR-8): 68.74%
Growth percent NCI/ADR-RES (NCI/ADR-RES): 77.02%
Growth percent SK-OV-3 (SK-OV-3): 58.93%
Growth percent 786-0 (786-0): 82.86%
Growth percent A498 (A498): 74.62%
Growth percent ACHN (ACHN): 69.12%
Growth percent CAKI-1 (CAKI-1): 59.29%
Growth percent RXF 393 (RXF 393): 71.61%
Growth percent SN12C (SN12C): 81.98%
Growth percent TK-10 (TK-10): 77.45%
Growth percent UO-31 (UO-31): 51.01%
Growth percent PC-3 (PC-3): 58.35%
Growth percent DU-145 (DU-145): 87.04%
Growth percent MCF7 (Table 2: MCF) (MCF7): 40.92%
Growth percent MDA-MB-231/ATCC (MDA-MB-231/ATCC): 58.29%
Growth percent HS 578T (HS 578T): 52.66%
Growth percent BT-549 (BT-549): 85.96%
Growth percent T-47D (T-47D): 46.94%
Growth percent MDA-MB-486 (MDA-MB-486): 80.85%
Growth percent, Delta (60 cancer cell lines; delta over the cell panel): 42.51%
Growth percent, Mean (60 cancer cell lines; mean over the cell panel): 73.52%
Growth percent, Range (60 cancer cell lines; range over the cell panel): 68.60%
melting point: 203 to 204 °C
